Assay results: US9394328B2, “Crystalline dapagliflozin hydrate” (SANDOZ AG, priority 2011, dated 2016)

Experimental: The measurements were carried out with a Bruker D8 Advance powder X-ray diffractometer using Cu Kα radiation in the Bragg-Brentano reflection geometry. Generally, the 2θ values are accurate within an error of ±0.1-0.2°. The relative peak intensities can vary considerably for different samples of the same crystalline form because of different preferred orientations of the crystals. The samples were prepared without any special treatment other than the application of slight pressure to get a flat surface. Silicon single crystal sample holders of either 0.5 mm or 0.1 mm depth and 12 mm cavity diameter were used. The tube voltage and current were 40 kV and 40 mA, respectively. The X-ray diffractometer is equipped with a LynxEye detector. A variable divergence slight was used with a 3° window. The step size was 0.02° 20 with a step time of 37 seconds. The samples were rotated at 0.5 rps during the measurement.
Thermogravimetry coupled with Fourier Transform Infrared Spectroscopy (TG-FTIR): TG-FTIR was performed on a Netzsch Thermo-Microbalance TG 209, which is coupled to a Bruker FT-IR Spectrometer Vector 22. The measurements were carried out with aluminum crucibles with a micro pinhole under a nitrogen atmosphere and at a heating rate of 10° C./min over the range 25-250° C.
145 mg of crystalline hydrate form A according to example 4 is stored under a relative humidity of 60% (in an open container) for two weeks. Then the stored sample is investigated by PXRD and TG-FTIR.

TG-FTIR mass loss attributable to loss of water (after storage at relative humidity of 60% for two weeks): about 9% | Water content in equilibrium with a water activity of about 0.6 (concluded from TG-FTIR mass loss): about 2 mol water per mol dapagliflozin | Crystalline form after storage (PXRD) (stored under a relative humidity of 60% (open container) for two weeks): form A is retained
Compound: CCOc1ccc(Cc2cc([C@@H]3O[C@H](CO)[C@@H](O)[C@H](O)[C@H]3O)ccc2Cl)cc1 [form A, dapagliflozin]
